Measured values published in article PMC3165067 (Journal of medicinal chemistry, 2011).

Assays:
[1] = target: T1, Antithrombin inhibition of factor Xa (Homo sapiens, UniProt P01008); assay: Kinetics of antithrombin inhibition of factor Xa in presence of activators; assay type: biochemical; conditions: for kACT (second-order rate constant of fXa inhibition by AT–activator complex): pH 6.0, 25 mM NaCl, 25 °C, error ±1 S.E.
[2] = target: T1, Antithrombin inhibition of factor Xa; conditions: ref [32], cited from earlier work

T1 sequence (P01008 33-464): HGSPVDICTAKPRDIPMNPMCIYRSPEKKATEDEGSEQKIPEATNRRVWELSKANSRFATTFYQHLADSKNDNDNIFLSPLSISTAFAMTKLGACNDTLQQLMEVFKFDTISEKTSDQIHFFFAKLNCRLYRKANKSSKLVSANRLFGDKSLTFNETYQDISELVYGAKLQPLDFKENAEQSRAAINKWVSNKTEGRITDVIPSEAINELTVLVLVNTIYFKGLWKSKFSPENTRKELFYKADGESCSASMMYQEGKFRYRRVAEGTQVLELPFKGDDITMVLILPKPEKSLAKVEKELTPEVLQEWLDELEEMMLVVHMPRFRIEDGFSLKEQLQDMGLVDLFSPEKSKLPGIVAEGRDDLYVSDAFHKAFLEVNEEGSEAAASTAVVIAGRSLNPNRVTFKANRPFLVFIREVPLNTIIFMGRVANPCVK

Structure (SMILES) | kACT (second-order rate constant of fXa inhibition by AT–activator complex) [1] | also measured
O=C([O-])C1Cc2cc(OS(=O)(=O)[O-])c(OS(=O)(=O)[O-])cc2CN1C(=O)Cc1cc(OS(=O)(=O)[O-])ccc1OS(=O)(=O)[O-].[Na+].[Na+].[Na+].[Na+].[Na+] (centres unmarked) [19a, Sodium 2-(2-(2,5-di-O-sulfonato-phenyl)acetyl)-6,7-di-O-sulfonato-1,2,3,4-tetrahydroisoquinoline-3-carboxylate tetrasodium] | 19740 ± 1290 M⁻¹ s⁻¹ | –
O=C([O-])C1Cc2cc(OS(=O)(=O)[O-])c(OS(=O)(=O)[O-])cc2CN1C(=O)CCc1cc(OS(=O)(=O)[O-])ccc1OS(=O)(=O)[O-].[Na+].[Na+].[Na+].[Na+].[Na+] (centres unmarked) [19b, Sodium 2-(3-(2,5-di-O-sulfonato-phenyl)propanoyl)-6,7-di-O-sulfonato-1,2,3,4-tetrahydroisoquinoline-3-carboxylate tetrasodium] | 8051 ± 751 M⁻¹ s⁻¹ | –
O=C([O-])C1Cc2cc(OS(=O)(=O)[O-])c(OS(=O)(=O)[O-])cc2CN1C(=O)CCCc1cc(OS(=O)(=O)[O-])ccc1OS(=O)(=O)[O-].[Na+].[Na+].[Na+].[Na+].[Na+] (centres unmarked) [19c, Sodium 2-(4-(2,5-di-O-sulfonato-phenyl)butanoyl)-6,7-di-O-sulfonato-1,2,3,4-tetrahydroisoquinoline-3-carboxylate tetrasodium] | 9640 ± 748 M⁻¹ s⁻¹ | –
O=C([O-])C1Cc2c(OS(=O)(=O)[O-])ccc(OS(=O)(=O)[O-])c2CN1C(=O)Cc1cc(OS(=O)(=O)[O-])ccc1OS(=O)(=O)[O-].[Na+].[Na+].[Na+].[Na+].[Na+] (centres unmarked) [20a, Sodium 2-(2-(2,5-di-O-sulfonato-phenyl)acetyl)-5,8-di-O-sulfonato-1,2,3,4-tetrahydroisoquinoline-3-carboxylate tetrasodium] | 32630 ± 1644 M⁻¹ s⁻¹ | –
O=C([O-])C1Cc2c(OS(=O)(=O)[O-])ccc(OS(=O)(=O)[O-])c2CN1C(=O)CCc1cc(OS(=O)(=O)[O-])ccc1OS(=O)(=O)[O-].[Na+].[Na+].[Na+].[Na+].[Na+] (centres unmarked) [20b, Sodium 2-(3-(2,5-di-O-sulfonato-phenyl)propanoyl)-5,8-di-O-sulfonato-1,2,3,4-tetrahydroisoquinoline-3-carboxylate tetrasodium] | 11800 ± 789 M⁻¹ s⁻¹ | –
O=C([O-])C1Cc2c(OS(=O)(=O)[O-])ccc(OS(=O)(=O)[O-])c2CN1C(=O)CCCc1cc(OS(=O)(=O)[O-])ccc1OS(=O)(=O)[O-].[Na+].[Na+].[Na+].[Na+].[Na+] (centres unmarked) [20c, Sodium 2-(4-(2,5-di-O-sulfonato-phenyl)butanoyl)-5,8-di-O-sulfonato-1,2,3,4-tetrahydro isoquinoline-3-carboxylate tetrasodium] | 46330 ± 2830 M⁻¹ s⁻¹ | AT activation, fold less than that achieved with DEFGH ([1]; 79-fold versus 300-fold for DEFGH): 3.8 fold
O=S(=O)([O-])Oc1cc2c(c(OS(=O)(=O)[O-])c1)C[C@@H](OS(=O)(=O)[O-])[C@@H](c1ccc(OS(=O)(=O)[O-])c(OS(=O)(=O)[O-])c1)O2.[Na+].[Na+].[Na+].[Na+].[Na+] [ECS] | – | kUNCAT ([2]; 20 mM sodium phosphate buffer, pH 6.0, 0.1 mM EDTA, 0.1% PEG8000): ~120 M⁻¹ s⁻¹; kACT ([2]; pH 6.0, no added NaCl): 909 ± 40 M⁻¹ s⁻¹
O=C(Cc1cc(OS(=O)(=O)[O-])ccc1OS(=O)(=O)[O-])N1CCc2cc(OS(=O)(=O)[O-])c(OS(=O)(=O)[O-])cc2C1.[Na+].[Na+].[Na+].[Na+] [compound 7, 1-(6,7-di-O-sulfonato-3,4-dihydroisoquinolin-2(1H)-yl)-2-(2,5-di-O-sulfonato-phenyl) ethanone tetrasodium] | 4582 ± 597 M⁻¹ s⁻¹ | –
O=C(CCCc1cc(OS(=O)(=O)[O-])ccc1OS(=O)(=O)[O-])N1CCc2c(ccc(OS(=O)(=O)[O-])c2OS(=O)(=O)[O-])C1.[Na+].[Na+].[Na+].[Na+] [compound 8, 1-(5,6-di-O-sulfonato-3,4-dihydroisoquinolin-2(1H)-yl)-4-(2,5-di-O-sulfonato-phenyl)butan-1-one tetrasodium] | 3337 ± 265 M⁻¹ s⁻¹ | –
